Source: article PMC12155096 (International Journal of Molecular Sciences, 2025)
Where a name gives a salt, the structure may show the parent alone. Read-outs that look alike come from different tables or passages of the source.

Experiments:
Assay in all cases: biochemical; call rule not given here
[1] = target: Photinus pyralis (firefly) luciferase (Photinus pyralis, UniProt P08659); assay type: biochemical; design: Luciferase Efficacy: unit not given here
human CYP1A2 = target: T1, human CYP1A2 (Homo sapiens, UniProt P05177)
T1 sequence (P05177 1-516): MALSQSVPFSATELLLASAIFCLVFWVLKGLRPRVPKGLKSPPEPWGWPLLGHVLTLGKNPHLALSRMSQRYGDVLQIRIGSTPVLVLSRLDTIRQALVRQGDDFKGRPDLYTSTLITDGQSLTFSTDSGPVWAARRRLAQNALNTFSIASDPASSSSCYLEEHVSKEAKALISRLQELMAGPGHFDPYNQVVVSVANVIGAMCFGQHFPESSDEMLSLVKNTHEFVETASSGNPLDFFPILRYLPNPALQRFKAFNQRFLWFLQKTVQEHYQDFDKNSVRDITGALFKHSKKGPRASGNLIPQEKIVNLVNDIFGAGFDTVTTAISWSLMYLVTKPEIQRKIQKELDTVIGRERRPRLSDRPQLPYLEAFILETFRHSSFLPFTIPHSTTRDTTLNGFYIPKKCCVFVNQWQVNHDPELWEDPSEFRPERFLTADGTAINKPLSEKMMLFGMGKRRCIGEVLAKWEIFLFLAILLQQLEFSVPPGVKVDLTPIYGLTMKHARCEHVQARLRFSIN

human CYP2C9 = human CYP2C9 (Homo sapiens, UniProt P11712)
human CYP2C19 = human CYP2C19 (Homo sapiens, UniProt P33261)
human CYP2D6 = human CYP2D6 (Homo sapiens, UniProt P10635)
CYP3A4 = CYP3A4 (Homo sapiens, UniProt P08684)
[2] = CYP1A2 IC50 (half-maximal inhibitory concentration)
[3] = CYP2C9 IC50 (half-maximal inhibitory concentration)
[4] = CYP2C19 IC50 (half-maximal inhibitory concentration)
[5] = CYP2D6 IC50 (half-maximal inhibitory concentration)
[6] = CYP3A4 IC50 (half-maximal inhibitory concentration)

Chain of human CYP2C9 (P11712 whole entry): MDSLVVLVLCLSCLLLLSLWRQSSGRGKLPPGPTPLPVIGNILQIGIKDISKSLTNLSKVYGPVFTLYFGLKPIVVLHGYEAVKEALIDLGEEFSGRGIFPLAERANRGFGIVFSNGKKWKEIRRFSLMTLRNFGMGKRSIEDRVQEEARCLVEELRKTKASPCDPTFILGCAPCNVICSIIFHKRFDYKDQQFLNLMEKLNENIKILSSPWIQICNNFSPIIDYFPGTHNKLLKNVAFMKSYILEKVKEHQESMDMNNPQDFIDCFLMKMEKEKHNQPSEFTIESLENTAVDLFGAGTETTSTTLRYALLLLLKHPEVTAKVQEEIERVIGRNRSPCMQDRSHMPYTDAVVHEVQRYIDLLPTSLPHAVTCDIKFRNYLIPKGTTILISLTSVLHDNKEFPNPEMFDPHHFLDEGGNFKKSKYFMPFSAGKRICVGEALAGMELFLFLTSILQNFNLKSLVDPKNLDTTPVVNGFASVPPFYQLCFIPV
Chain of CYP3A4 (P08684 whole entry): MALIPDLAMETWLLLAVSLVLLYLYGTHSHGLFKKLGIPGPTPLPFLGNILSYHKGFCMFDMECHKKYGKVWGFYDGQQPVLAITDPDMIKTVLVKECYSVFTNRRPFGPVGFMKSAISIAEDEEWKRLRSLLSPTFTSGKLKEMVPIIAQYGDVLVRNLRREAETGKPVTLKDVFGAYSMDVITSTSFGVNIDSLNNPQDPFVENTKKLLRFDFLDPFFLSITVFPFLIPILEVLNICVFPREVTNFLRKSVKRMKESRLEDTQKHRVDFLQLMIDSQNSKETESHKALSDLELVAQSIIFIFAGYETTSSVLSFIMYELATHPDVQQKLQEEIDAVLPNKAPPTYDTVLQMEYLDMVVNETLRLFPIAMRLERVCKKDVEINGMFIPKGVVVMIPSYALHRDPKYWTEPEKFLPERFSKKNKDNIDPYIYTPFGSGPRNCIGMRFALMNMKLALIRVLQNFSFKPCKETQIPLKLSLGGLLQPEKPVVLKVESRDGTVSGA
Chain of human CYP2C19 (P33261 whole entry): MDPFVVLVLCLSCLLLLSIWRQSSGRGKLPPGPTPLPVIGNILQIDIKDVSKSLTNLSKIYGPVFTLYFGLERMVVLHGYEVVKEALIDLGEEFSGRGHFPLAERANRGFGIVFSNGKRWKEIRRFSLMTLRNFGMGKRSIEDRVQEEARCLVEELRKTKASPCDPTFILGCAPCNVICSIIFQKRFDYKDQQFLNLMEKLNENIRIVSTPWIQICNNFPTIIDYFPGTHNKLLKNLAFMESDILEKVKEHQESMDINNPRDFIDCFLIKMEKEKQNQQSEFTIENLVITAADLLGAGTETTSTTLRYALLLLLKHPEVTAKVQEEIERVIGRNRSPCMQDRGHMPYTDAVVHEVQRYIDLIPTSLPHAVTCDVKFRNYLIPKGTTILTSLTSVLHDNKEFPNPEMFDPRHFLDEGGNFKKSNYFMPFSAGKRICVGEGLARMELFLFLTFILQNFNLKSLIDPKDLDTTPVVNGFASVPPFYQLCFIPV
Chain of Photinus pyralis (firefly) luciferase (P08659 whole entry): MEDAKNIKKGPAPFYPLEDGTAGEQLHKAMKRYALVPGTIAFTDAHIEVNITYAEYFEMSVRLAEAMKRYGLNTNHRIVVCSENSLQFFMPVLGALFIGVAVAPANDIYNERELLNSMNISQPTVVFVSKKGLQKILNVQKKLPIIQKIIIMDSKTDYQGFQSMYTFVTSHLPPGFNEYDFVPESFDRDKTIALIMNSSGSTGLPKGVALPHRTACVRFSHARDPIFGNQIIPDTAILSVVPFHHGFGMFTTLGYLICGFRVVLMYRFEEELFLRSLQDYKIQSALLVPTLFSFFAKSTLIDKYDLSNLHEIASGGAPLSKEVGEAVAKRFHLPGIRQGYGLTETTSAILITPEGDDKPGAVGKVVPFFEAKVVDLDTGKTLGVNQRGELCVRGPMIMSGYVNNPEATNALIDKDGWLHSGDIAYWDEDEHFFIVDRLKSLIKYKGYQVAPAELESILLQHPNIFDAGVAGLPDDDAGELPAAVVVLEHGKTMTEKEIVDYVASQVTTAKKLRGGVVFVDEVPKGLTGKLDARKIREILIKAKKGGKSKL
Chain of human CYP2D6 (P10635 whole entry): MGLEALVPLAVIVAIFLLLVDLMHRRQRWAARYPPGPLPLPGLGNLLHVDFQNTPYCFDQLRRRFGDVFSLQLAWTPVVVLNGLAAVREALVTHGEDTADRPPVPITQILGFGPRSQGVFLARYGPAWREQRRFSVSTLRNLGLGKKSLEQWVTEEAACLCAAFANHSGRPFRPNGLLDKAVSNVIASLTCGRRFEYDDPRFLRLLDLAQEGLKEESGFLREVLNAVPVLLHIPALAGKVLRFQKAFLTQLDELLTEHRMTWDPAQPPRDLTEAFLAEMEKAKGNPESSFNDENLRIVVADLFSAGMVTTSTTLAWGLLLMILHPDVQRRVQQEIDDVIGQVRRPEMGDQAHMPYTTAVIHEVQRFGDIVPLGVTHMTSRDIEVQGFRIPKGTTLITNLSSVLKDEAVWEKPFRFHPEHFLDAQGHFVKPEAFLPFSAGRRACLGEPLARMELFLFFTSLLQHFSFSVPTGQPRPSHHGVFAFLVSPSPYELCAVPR

Row | Structure (SMILES) | Luciferase IC50 (half-maximal inhibitory concentration) [1] | IC50 (human CYP1A2; [2]) [µM] | IC50 (human CYP2C9; [3]) [µM] | IC50 (human CYP2C19; [4]) [µM] | IC50 (human CYP2D6; [5]) [µM] | IC50 (CYP3A4; [6]) [µM] | IC50 (human CYP2C9) [µM] | IC50 (human CYP2D6) [µM] | Luciferase IC50 [1] | IC50 (human CYP1A2; CYP1A2 IC50) [µM] | IC50 (human CYP2C19; CYP2C19 IC50) [µM] | IC50 (CYP3A4; CYP3A4 IC50) [µM] | other results
1 | CC1COC(Cn2cncn2)(c2ccc(Oc3ccc(Cl)cc3)cc2Cl)O1 (centres unmarked) [Difenoconazole] | Inactive | 27.4 | 1.22 | 0.08 | 34.4 | 0.08 |  |  |  |  |  |  | 
2 | CC(C(O)c1ccccc1)N(C)CCOC(c1ccccc1)c1ccccc1 (centres unmarked) [Difeterol] | Inactive |  |  |  |  |  | 16.8 ± 1.09 | 0.11 ± 0.06 |  |  |  |  | IC50 (human CYP1A2): 23.5 ± 5.69 µM; IC50 (human CYP2C19): 7.12 ± 1.98 µM; IC50 (CYP3A4): 0.62 ± 0.07 µM
3 | CCOP(=S)(OCC)SCCS(=O)(=O)CC [Disulfoton sulfone] | Inactive | 26 |  | 0.3 |  | 2.61 | 1.64 | 13.4 |  |  |  |  | 
4 | CCCCCCCCCCCCN [Dodecylamine hydrochloride] |  |  |  |  |  |  |  |  | Inactive | 2.55 | 0.47 | 34.3 | IC50 (human CYP2C9; CYP2C9 IC50): 6.64 µM; IC50 (human CYP2D6; CYP2D6 IC50): 3.3 µM
5 | O=S1OCC2C(CO1)C1(Cl)C(Cl)=C(Cl)C2(Cl)C1(Cl)Cl (centres unmarked) [Endosulfan] |  |  |  |  |  |  |  |  | Inactive | 35.8 | 3.19 | 0.39 | IC50 (human CYP2C9; CYP2C9 IC50): 37.2 µM; IC50 (human CYP2D6; CYP2D6 IC50): 18 µM
6 | CCC(=O)O[C@H]1[C@H](O[C@@H]2[C@@H](C)[C@H](O[C@H]3C[C@@](C)(OC)[C@@H](O)[C@H](C)O3)[C@@H](C)C(=O)O[C@H](CC)[C@@](C)(O)[C@H](O)[C@@H](C)C(=O)[C@H](C)C[C@@]2(C)O)O[C@H](C)C[C@@H]1N(C)C [Erythromycin estolate] |  |  |  |  |  |  | 32.7 ± 12.3 | 30.5 ± 9.76 |  |  |  |  | IC50 [1]: 55 µM; IC50 (human CYP1A2): 33.5 ± 11 µM; IC50 (human CYP2C19): 47.1 µM; IC50 (CYP3A4): 0.29 ± 0.04 µM
7 | CCOP(=S)(OCC)SCSP(=S)(OCC)OCC [Ethion] |  |  |  |  |  |  | 0.52 | 37 | Inactive | 19.6 | 0.34 | 0.97 | 
8 | CCOc1cc(C(C)(C)C)ccc1C1COC(c2c(F)cccc2F)=N1 (centres unmarked) [Etoxazole] | Inactive | 19.6 | 9.94 | 3.43 | 10.5 | 0.11 |  |  |  |  |  |  | 
9 | OC(c1ccc(Cl)cc1)(c1cncnc1)c1ccccc1Cl (centres unmarked) [Fenarimol] | Inactive | 71.4 | 6.1 | 0.24 | 35.6 | 0.17 |  |  |  |  |  |  | 
10 | N#CC(CCc1ccc(Cl)cc1)(Cn1cncn1)c1ccccc1 (centres unmarked) [Fenbuconazole] | Inactive | 35.8 | 1.94 | 0.17 | 38.6 | 0.05 |  |  |  |  |  |  | 
11 | COP(=S)(OC)Oc1ccc([N+](=O)[O-])c(C)c1 [Fenitrothion] |  | 1.04 | 6.12 | 0.55 | 35 | 8.48 |  |  |  |  |  |  | IC50 [1]: 67 µM
12 | O=[N+]([O-])c1cc(C(F)(F)F)c(Cl)c([N+](=O)[O-])c1Nc1ncc(C(F)(F)F)cc1Cl [Fluazinam] |  | 35.6 | 0.73 | 14.8 | 46.2 | 18.7 |  |  |  |  |  |  | IC50 [1]: 89.4 µM
13 | C[Si](Cn1cncn1)(c1ccc(F)cc1)c1ccc(F)cc1 [Flusilazole] | Inactive | 27.9 | 2.28 | 0.06 | 33 | 0.16 |  |  |  |  |  |  | 
14 | OC(Cn1cncn1)(c1ccc(F)cc1)c1ccccc1F (centres unmarked) [Flutriafol] | Inactive | 35.7 | 0.77 | 1.63 | 37 | 0.24 |  |  |  |  |  |  | 
15 | CCCCC(O)(Cn1cncn1)c1ccc(Cl)cc1Cl (centres unmarked) [Hexaconazole] | Inactive | 37 | 0.52 | 0.3 | 33 | 0.11 |  |  |  |  |  |  | 
16 | COP(N)(=S)Oc1ccccc1C(=O)OC(C)C (centres unmarked) [Isocarbophos] | Inactive | 1.14 | 5.11 | 0.13 | 46.1 | 1.61 |  |  |  |  |  |  | 
17 | CCOP(=S)(NC(C)C)Oc1ccccc1C(=O)OC(C)C (centres unmarked) [Isofenphos] | Inactive | 9.71 |  | 0.19 |  | 0.68 | 1.44 | 60.6 |  |  |  |  | 

Row | Structure (SMILES) | Luciferase IC50 (half-maximal inhibitory concentration) [1] | IC50 (human CYP1A2; [2]) [µM] | IC50 (human CYP2C9; [3]) [µM] | IC50 (human CYP2C19; [4]) [µM] | IC50 (human CYP2D6; [5]) [µM] | IC50 (CYP3A4; [6]) [µM] | IC50 (human CYP2C9) [µM] | IC50 (human CYP2D6) [µM] | Luciferase IC50 [1] | IC50 (human CYP1A2; CYP1A2 IC50) [µM] | IC50 (human CYP2C19; CYP2C19 IC50) [µM] | IC50 (CYP3A4; CYP3A4 IC50) [µM] | other results
18 | CCOP(=S)(OCC)Oc1cc(-c2ccccc2)on1 [Isoxathion] |  |  |  |  |  |  | 0.75 | 35.6 |  | 3.92 | 2.55 | 2.11 | IC50 [1]: 33 µM
19 | O=C1C2(Cl)C3(Cl)C4(Cl)C(Cl)(Cl)C5(Cl)C3(Cl)C1(Cl)C5(Cl)C24Cl (centres unmarked) [Kepone] |  |  |  |  |  |  | 6.47 | 67.9 | Inactive | 36.4 | 0.87 | 3.13 | 
20 | CCCCN(CCCC)CC(O)c1cc(Cl)cc2c1-c1ccc(Cl)cc1/C2=C/c1ccc(Cl)cc1 (centres unmarked) [Lumefantrine] |  |  |  |  |  |  |  |  | Inactive | 14.8 | 26.9 | 16.8 | IC50 (human CYP2C9; CYP2C9 IC50): 16.2 µM; IC50 (human CYP2D6; CYP2D6 IC50): 0.69 µM
21 | CCN(CC)C(=O)[C@@H]1C=C2c3cccc4[nH]cc(c34)C[C@H]2N(C)C1 [Lysergide] |  |  |  |  |  |  |  |  | Inactive | 151 | 156 | 71.8 | IC50 (human CYP2C9; CYP2C9 IC50): 72.9 µM; IC50 (human CYP2D6; CYP2D6 IC50): 0.43 µM
22 | CCOC(=O)N(C)C(=O)CSP(=S)(OCC)OCC [Mecarbam] |  |  |  |  |  |  |  |  | Inactive | 2.91 | 0.09 | 2.6 | IC50 (human CYP2C9; CYP2C9 IC50): 0.7 µM; IC50 (human CYP2D6; CYP2D6 IC50): 27.5 µM
23 | CC(C)Nc1ccc(Nc2ccccc2)cc1 [N-Isopropyl-N'-phenyl-p-phenylenediamine] |  |  |  |  |  |  |  |  |  | 35.5 | 4.25 | 17.3 | IC50 [1]: 34.2 µM; Luciferase Efficacy [1]: 34.17 ± 2.23 (-75 ± 7) %; IC50 (human CYP2C9; CYP2C9 IC50): 0.97 µM; IC50 (human CYP2D6; CYP2D6 IC50): 9.04 µM
24 | CCOC(=O)C(SP(=S)(OC)OC)c1ccccc1 (centres unmarked) [Phenthoate] |  |  |  |  |  |  | 1.28 | 49.3 | Inactive | 3.79 | 0.3 | 3.33 | 
25 | CCN(CC)c1nc(C)cc(OP(=S)(OC)OC)n1 [Pirimiphos-methyl] | Inactive | 1.49 |  | 0.19 |  | 2.22 | 23.6 | 53.3 |  |  |  |  | 
26 | CCCN(CCOc1c(Cl)cc(Cl)cc1Cl)C(=O)n1ccnc1 [Prochloraz] | Inactive | 0.22 | 0.81 | 0.05 | 0.53 | 0.07 |  |  |  |  |  |  | 
27 | C#CCOS(=O)OC1CCCCC1Oc1ccc(C(C)(C)C)cc1 (centres unmarked) [Propargite] | Inactive | 7.75 | 0.49 | 0.78 | 16 | 1.87 |  |  |  |  |  |  | 
28 | OC(Cc1ccccc1Cl)(Cn1nc[nH]c1=S)C1(Cl)CC1 (centres unmarked) [Prothioconazole] |  | 41.9 | 0.93 | 2.55 | 47.5 | 8 |  |  |  |  |  |  | IC50 [1]: 65.8 µM; Luciferase Efficacy [1]: 65.83 ± 4.46 (-26 ± 4) %
29 | CCOP(=S)(OCC)Oc1cnc2ccccc2n1 [Quinalphos] |  |  |  |  |  |  | 0.91 | 38.5 | Inactive | 2.25 | 0.47 | 4.57 | 
30 | CC1(C)C2(Cl)C(Cl)C(Cl)C(Cl)(C(Cl)Cl)C1(Cl)C2Cl (centres unmarked) [Strobane] |  |  |  |  |  |  |  |  | Inactive | 41.2 | 1.59 | 0.82 | IC50 (human CYP2C9; CYP2C9 IC50): 9.89 µM; IC50 (human CYP2D6; CYP2D6 IC50): 44 µM
31 | CCOP(=S)(Oc1cnc(C(C)(C)C)nc1)OC(C)C (centres unmarked) [Tebupirimfos] |  |  |  |  |  |  | 1.79 | 34.3 | Inactive | 24 | 0.62 | 1.5 | 
32 | COC(=O)c1c(C(F)F)nc(C(F)(F)F)c(C2=NCCS2)c1CC(C)C [Thiazopyr] | Inactive | 0.4 | 34.3 | 5.43 | 54.3 | 1.93 |  |  |  |  |  |  | 
33 | CC(C)(C)C(=O)C(Oc1ccc(Cl)cc1)n1cncn1 (centres unmarked) [Triadimefon] | Inactive | 37 | 11.3 | 1.92 | 51.6 | 0.45 |  |  |  |  |  |  | 
34 | C[C@H]1CCCC(=O)CCC/C=C/c2cc(O)cc(O)c2C(=O)O1 [Zearalenone] | Inactive | 25.3 |  | 16.6 |  | 0.12 | 5.74 | 46.5 |  |  |  |  | 
